What was measured:
[1] = tested on: 5-hydroxytryptamine induced bronchoconstriction; assay: Inhibition of 5-hydroxytryptamine induced bronchoconstriction in anaesthetised, artificially respired guinea pig (Konzett-Rossler preparation); type: in vivo; conditions: Cavia porcellus, intravenous
Protocol: 1. The compounds were examined for their ability to inhibit 5-hydroxytryptamine induced bronchoconstriction in the anaesthetised, artificially respired guinea pig (Konzett-Rossler preparation). The compounds were administered intravenously.

[2] = tested on: bronchoconstriction induced by an histamine aerosol; assay: Protection of conscious guinea pigs against bronchoconstriction induced by histamine aerosol (Herxheimer test); type: in vivo, guinea pig; conditions: 10 μg/ml, 2 minutes after dosing
Protocol: 2. The compounds were examined for their ability to protect conscious guinea pigs against bronchoconstriction induced by an histamine aerosol (Herxheimer test). In these experiments the compounds were administered by aerosol.

| Structure (SMILES) | ED50 [1] | increase in pre-convulsive coughing time [2] |
| --- | --- | --- |
| CCCCCCC(C)(O)CCN1C(=O)N(C)C(=O)C1CCCCCCCNCC(=O)OC (stereo not drawn) [Compound 9, 1-(3'-hydroxy-3'-methyl-n-nonyl)-3-methyl-5-5-[7'-(N-methoxycarbonylmethyl)amino-n-heptyl]-hydantoin] | 0.066 mg/kg | – |
| CCCCCCC(C)(O)CCN1C(=O)N(C)C(=O)C1CCCCCCCN(CC(=O)OC)CC(=O)OC (stereo not drawn) [Compound 10, 1-(3'-hydroxy-3'-methyl-n-nonyl)-3-methyl-5-{7'-[N,N-bis(methoxycarbonylmethyl)amino]-n-heptyl}hydantoin] | 0.0805 mg/kg | – |
| CCCCCCC(C)(O)CCN1C(=O)N(C)C(=O)C1CCCCCCCN(CCC(=O)OC)CCC(=O)OC (stereo not drawn) [Compound 6] | 0.079 mg/kg | – |
| CCCCCCC(C)(O)CCN1C(=O)N(C)C(=O)C1CCCCCCC(N)=O (stereo not drawn) [Compound 3, 1-(3'-hydroxy-3'-methyl-n-nonyl)-3-methyl-5-(6"-amidoyl-n-hexyl) hydantoin] | 0.108 mg/kg | 107% |
| CCCCCCC(C)(O)CCN1C(=O)N(C)C(=O)C1CCCCCCC(N)=NO (stereo not drawn) [Compound 2, 1-(3'-hydroxy-3'-methyl-n-nonyl)-3-methyl-5-(6"-amidoxyl-n-hexyl)-hydantoin] | 0.032 mg/kg | 47.5% |
| CCCCCCC(C)(O)CCN1C(=O)N(C)C(=O)C1CCCCCCCN (stereo not drawn) [Compound 1, 1-(3'-hydroxy-3'-methyl-n-nonyl)-3-methyl-5-(7"-amino-n-heptyl)-hydantoin] | 0.0023 mg/kg | – |
| CCCCCCC(C)(O)CCN1C(=O)N(C)C(=O)C1CCCCCCCNCCC(=O)OC (stereo not drawn) [Compound 5, 1-(3'-hydroxy-3'-methyl-n-nonyl)-3-methyl-5-(7"-(2'''-methoxycarbonylethyl)amino-n-heptyl) hydantoin] | 0.095 mg/kg | – |
